Experimental data: patent US11401271B2, “Fused heterocyclic compound, pyrazole-ring-containing fused heterocyclic compound, agricultural composition containing thereof, and method of using the composition” (SOUTH CHINA AGRICULTURAL UNIVERSITY, priority 2017, dated 2022)
Read-outs that look alike come from different tables or passages of the source.

Columns and labels:
Format in all cases: in vivo
Spodoptera exigua = test: whole plant or invertebrate; settings: for mortality at 500 ppm: Spodoptera exigua, 24 h, read-out: Spodoptera exigua Mortality (%) 500 ppm; for Spodoptera exigua Mortality (%): 500 ppm, 2nd-instar larvae, leaf immersion feeding
Method in brief: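 Leaf immersion feeding: second-instar larvae (about 35 per vessel, triplicate) kept at 28° C on discs treated with 500 ppm test solution in 0.05% Tween-80. Mortality at 24 h, calculated relative to surviving larvae in the solvent control.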

Plutella xylostella = test: whole plant or invertebrate; settings: for mortality at 500 ppm: Plutella xylostella, read-out: Plutella xylostella Mortality (%) 500 ppm; for Plutella xylostella Mortality (%): 500 ppm, 2nd-instar larvae, leaf immersion feeding
Method in brief: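 Leaf immersion feeding test: 2nd-instar larvae (about 35 per vessel, 3 replicates) kept at 28° C. on 1.0 cm cabbage discs soaked 5 s in a 500 ppm solution with 0.05% Tween-80. Mortality after 24 h of exposure, calculated relative to live larvae in the Tween-80 control.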

Bombyx mori L. = test: Toxicity test on 2nd-instar larvae of Bombyx mori L., leaf immersion feeding method; settings: 1000 ppm, 24 hours
Experimental: (1) Toxicity Test on 2nd-Instar Larvae of Bombyx mori L.
Bombyx mori L. is an important economic insect sensitive to pesticides in an agricultural ecosystem, and is also one of the non-target organisms of environmental ecology listed in pesticide registration of China. The 2nd-instar larvae of Bombyx mori L. were used as test objects and tested by using a leaf immersion feeding method.
Operation process: Samples were weighed accurately, and respectively added with 200 μL of dimethyl sulfoxide to prepare 10 g/L mother liquor which was diluted into a concentration of 1000 ppm with an aqueous solution containing 0.05% of Tween-80 during the test. Young cotyledons of mulberries were collected, washed and air-dried, immersed in a liquid medicine, taken out after 5 seconds, naturally air-dryed, and then transferred into a clean vessel. About 35 2nd -instar larvae of Bombyx mori L. were put into the vessel and fed at a constant temperature of 25° C. Each concentration was repeated 3 times, and an aqueous solution containing 0.05% of Tween-80 was used as a control group. After being treated for 24 hours, a number of dead Bombyx mori L. was counted, and a mortality (%) was calculated according to a formula that mortality (%)=(number of live larvae in the control group −number of treated live larvae)/number of live larvae in the control group * 100%.

Solenopsis invicta = test: whole plant or invertebrate; settings: water test tube poison-feeding; for mortality at 100 ppm: Solenopsis invicta; for Solenopsis invicta Mortality (%) 24 h / Solenopsis invicta Mortality (%) 72 h: 100 ppm
Method in brief: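 Mortality (%) of Solenopsis invicta, computed against live counts in control tubes, was recorded 24 h and 72 h after treatment at 25 °C. Compound was offered by oral feeding in test tubes at 100 ppm, diluted from a 10 g/L DMSO stock into water with 5% honey and 0.05% Tween-80.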

Aphis craccivora = test: whole plant or invertebrate; settings: for mortality at 500 ppm: Aphis craccivora, 24 h, read-out: Aphis craccivora Mortality (%) 500 ppm; for Aphis craccivora Mortality (%): 500 ppm, wingless adults, immersion 5 seconds, counted after 24 hours
Method in brief: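 Mortality scored 24 h after treatment as the reduction in live aphids versus a 0.05% Tween-80 control; three replicates, 23° C. Treatment was a 5 s immersion of wingless adults on bean sprouts in 500 ppm test solution containing 0.05% Tween-80, followed by air-drying.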

Apis cernan = test: Toxicity test on adult worker bees of Apis cernan, small beaker method; settings: 500 ppm, 48 hours
Experimental: (2) Toxicity Test on Adult Worker Bees of Apis cernan.
Adult worker bees of Apis cernan having the same size were selected for test. The worker bees were collected from beekeeping boxes in the daystart of the test day and tested by using a small beaker method.
Operation process: A small amount of absorbent cotton was put into a 5 mL small beaker, 5 mL of a test liquid medicine (a concentration of 500 ppm) was dropped into the absorbent cotton, and stirred gently to make the absorbent cotton completely wet but not leached obviously, then the small beaker was put into a 500 mL large beaker, then 15 worker bees were put into the large beaker, and finally the large beaker was sealed with gauze. After treatment, the large beaker was placed in a dark room of an artificial climate box. After taking the medicine for 48 hours, a number of live and dead worker bees were investigated.

[1] = 24 h, read-out: Solenopsis invicta Mortality (%) 100 ppm 24 h, 100 ppm, 24 h
[2] = 72 h, read-out: Solenopsis invicta Mortality (%) 100 ppm 72 h, 100 ppm, 72 h

SMILES | mortality at 500 ppm (Spodoptera exigua) [%] | mortality at 500 ppm (Plutella xylostella) [%] | Toxicity determination Bombyx mori L. Mortality (%) (Bombyx mori L.) | mortality at 100 ppm (Solenopsis invicta; [1]) [%] | mortality at 100 ppm (Solenopsis invicta; [2]) [%] | mortality at 500 ppm (Aphis craccivora) [%] | Toxicity determination Apis cernan Mortality (%) (Apis cernan) | Spodoptera exigua Mortality (%) (Spodoptera exigua) | Plutella xylostella Mortality (%) (Plutella xylostella) | Solenopsis invicta Mortality (%) 24 h (Solenopsis invicta; 24 h) [%] | Solenopsis invicta Mortality (%) 72 h (Solenopsis invicta; 72 h) [%] | Aphis craccivora Mortality (%) (Aphis craccivora)
CC1(C)Nc2cc(C#N)nn2-c2ccccc21 [Compound A1, 5,5-dimethyl-4,5-dihydropyrazole[1,5-α]quinazoline-2-cyano] | 90 | 95 | 9 | 20 | 87 | 100 | 12 | – | – | – | – | –
CC(=O)N1c2c(Br)c(C#N)nn2-c2ccccc2C1(C)C [Compound A4] | 100 | 86 | 10 | 20 | 87 | 100 | 8 | – | – | – | – | –
CC(=O)c1nn2c(c1Br)NC(C)(C)c1ccccc1-2 [Compound A5] | 100 | 100 | 2 | 34 | 100 | 100 | 9 | – | – | – | – | –
CC1(C)Nc2c(Br)c(C(=O)N3CCCCC3)nn2-c2ccccc21 [Compound A7] | 100 | 100 | 6 | 20 | 100 | 100 | 6 | – | – | – | – | –
CC1(C)Nc2c([S+]([O-])C(F)(F)F)c(C#N)nn2-c2ccccc21 (centres unmarked) [Compound A8] | 90 | 100 | 12 | 26 | 93 | 100 | 10 | – | – | – | – | –
CNC(=O)C1Nc2c([S+]([O-])C(F)(F)F)c(C(F)(F)F)nn2-c2c(Cl)cc(C(F)(F)F)cc21 (stereo not drawn) [d-109] | – | – | – | – | – | – | – | 85 | 96 | 28 | 85 | 99
CC(=O)C1Nc2c([S+]([O-])C(F)(F)F)c(C(F)(F)F)nn2-c2c(Cl)cc(C(F)(F)F)cc21 (stereo not drawn) [d-112] | – | – | – | – | – | – | – | 80 | 96 | 36 | 99 | 100
[O-][S+](c1c(C(F)(F)F)nn2c1NC(Br)c1cc(C(F)(F)F)cc(Cl)c1-2)C(F)(F)F (stereo not drawn) [d-114] | – | – | – | – | – | – | – | 87 | 100 | 24 | 90 | 100
CC=CC1Nc2c([S+]([O-])C(F)(F)F)c(C(F)(F)F)nn2-c2c(Cl)cc(C(F)(F)F)cc21 (stereo not drawn) [d-119] | – | – | – | – | – | – | – | 90 | 89 | 26 | 83 | 92
COC(=O)C(C)C1Nc2c(OC(F)(F)F)c(C#N)nn2-c2c(Cl)cc(C(F)(F)F)cc21 (stereo not drawn) [d-122] | – | – | – | – | – | – | – | 84 | 91 | 24 | 95 | 90
N#Cc1nn2c(c1OC(F)(F)F)NC(C(=O)C(F)(F)F)c1cc(C(F)(F)F)cc(Cl)c1-2 (stereo not drawn) [d-127] | – | – | – | – | – | – | – | 100 | 96 | 20 | 97 | 100
N#CCC1Nc2c(OC(F)(F)F)c(C#N)nn2-c2c(Cl)cc(C(F)(F)F)cc21 (stereo not drawn) [d-129] | – | – | – | – | – | – | – | 100 | 95 | 24 | 100 | 100
CNC(=O)CC1Nc2c(OC(F)(F)F)c(C#N)nn2-c2c(Cl)cc(C(F)(F)F)cc21 (stereo not drawn) [d-133] | – | – | – | – | – | – | – | 86 | 70 | 21 | 95 | 100
CC(C)C1Nc2c(OC(F)(F)F)c(C#N)nn2-c2c(Cl)cc(C(F)(F)F)cc21 (stereo not drawn) [d-141] | – | – | – | – | – | – | – | 95 | 90 | 11 | 91 | 100
COC(=O)CC1(C(=O)OC)Nc2c([S+]([O-])C(F)(F)F)c(C#N)nn2-c2c(C(F)(F)F)ccc(Cl)c21 (centres unmarked) [e-1] | – | – | – | – | – | – | – | 100 | 100 | 33 | 100 | 100
CCOC(=O)CC1(C(=O)OC)Nc2c([S+]([O-])C(F)(F)F)c(C#N)nn2-c2c(C(F)(F)F)ccc(Cl)c21 (centres unmarked) [e-2] | – | – | – | – | – | – | – | 100 | 100 | 25 | 100 | 100
COC(=O)C1(CC(=O)OCC(F)(F)F)Nc2c([S+]([O-])C(F)(F)F)c(C#N)nn2-c2c(C(F)(F)F)ccc(Cl)c21 (centres unmarked) [e-3] | – | – | – | – | – | – | – | 95 | 100 | 20 | 98 | 100
COC(=O)C1(CC(=O)OCC(F)F)Nc2c([S+]([O-])C(F)(F)F)c(C#N)nn2-c2c(C(F)(F)F)ccc(Cl)c21 (centres unmarked) [e-4] | – | – | – | – | – | – | – | 100 | 100 | 32 | 100 | 100
CCOC(=O)CC1(C(=O)OCC)Nc2c([S+]([O-])C(F)(F)F)c(C#N)nn2-c2c(C(F)(F)F)ccc(Cl)c21 (centres unmarked) [e-5] | – | – | – | – | – | – | – | 100 | 100 | 34 | 100 | 100
CCOC(=O)C1(CC(=O)OC)Nc2c([S+]([O-])C(F)(F)F)c(C#N)nn2-c2c(C(F)(F)F)ccc(Cl)c21 (centres unmarked) [e-6] | – | – | – | – | – | – | – | 100 | 100 | 34 | 100 | 100
COC(=O)CC1(C(=O)OC)Nc2c([S+]([O-])C(F)(F)F)c(C#N)nn2-c2ccc(C(F)(F)F)c(Cl)c21 (centres unmarked) [e-7] | – | – | – | – | – | – | – | 100 | 100 | 29 | 99 | 100
COC(=O)CC1(C(=O)OC)Nc2c([S+]([O-])C(F)(F)F)c(C#N)nn2-c2c1ccc(Cl)c2C(F)(F)F (centres unmarked) [e-13] | – | – | – | – | – | – | – | 100 | 100 | 20 | 100 | 100
COC(=O)CC1(C(=O)OC)Nc2c([S+]([O-])C(F)(F)F)c(C#N)nn2-c2cc(C(F)(F)F)c(Cl)cc21 (centres unmarked) [e-19] | – | – | – | – | – | – | – | 100 | 100 | 31 | 90 | 100
